# Measured values: patent publication US5229265A, “Process for analyzing clastogenic agents” (Litron Laboratories, priority 1990, dated 1993)
# Where “and” joins values, the source holds several entries; their conditions need not be identical. Equal values may be shown once. Entries after “also recorded” stand apart in the source; their conditions may differ.
# Experiments:
# [1] = test system: micronucleated cells in blood; test: Effects of bleeding on the sensitivity of the micronucleus assay, MMS; type: in vivo, mouse; conditions: for MNs in 96 hr blood, MMS(D): MMS 100 μg/g body wt at 0 and 48 hrs; for Increase in MNs (D - C): MMS minus saline means
# Text: Earlier, it was pointed out that obtaining an initial blood sample (t=0) provides an important background measurement of the number of micronucleii in each mouse. Obtaining an initial blood sample also increases the sensitivity of the assay, due to the stimulation of the stem cells to replenish the lost blood. Clastogen action should be increased if cells are actively turning over, rather than subsisting in a quiscent state. In the absence of bleeding, new PCEs are introduced into the blood cells at a low steady state level and MNs are introduced at a spontaneous background level. […] Practioners in the art are unaware of this increase in sensitivity due to initial bleeding. […] In this experiment, control mice were dosed with 0.9% saline, whereas treated mice received MMS (100 μg/g body wt.) at 0 hr and at 48 hrs. The first set of mice (the L series) were not bleed prior to obtaining a 96 hour blood sample. The MN-cell level resulting from MMS treatment would reflect the probability of clastogen action in the steady state stem cell turnover rate. The second set of mice (the M series) were bleed 166 hrs prior to the initial clastogen dose. In this set, the minus 166 hr bleeding will cause stem cell proliferation and differentiation, but the system should begin to return to steady state once the blood is replenished. The third set (the K series) was bleed at t=0hr where upon dosing was initiated, and a final blood sample was obtained at t=96 hrs.
# Since the L series was not initially bleed, the initial blood samples were not used in the analysis of the M or K series for equal comparison with L. Rather, only the 96 hour blood samples were analyzed in each set. The difference, D, between the saline controls and the dosed mice should reflect the level of turnover of the stem cells and the suseptibility of said cells to clastogen action in each case. […] Although the M series had 166 hrs to recover from the initial bleeding before being dosed with MMS, the stem cells still appear to be fairly active, and an intermediate level of micronucleated cells was obtained (i.e. 513 events above background). Finally, the highest activity was obtained with the K-series wherein the mice were bleed and immediately dosed. In this case, the stem cells are turning over at a high rate to replenish the blood at a time when the concentration of MMS is also high. […] The results in Tables 2 and 4 provide additional experimental evidence that bleeding stimulates stem cell proliferation and differentiation. […] This increase in sensitivity could be particularly important in cases where a week clastogen is being investigated.
# [2] = test system: micronucleated cells in blood; test: Cyclophosphamide dose response, flow cytometric micronucleus assay; type: in vivo, mouse
# Method: However, an effective flow cytometry based micronulceus assay should also be able to reflect changes in the number of MN-cells at different doses of a clastogen. Accordingly, another example of this embodiment involves a cyclophosphamide dose response analysis. Ten mice were divided into sets of two for this experiment. An initial blood sample was taken (t=0hr) for each mouse. The two control mice were dosed with saline while the other sets received different doses of cyclophosphamide (50,100,150 or 200 μg/g body weight). Each set was treated twice, at t=0 and t=48 hrs. Final blood samples were obtained at t=96hrs, and were fixed and stained with Hoechst 33258 to which PC microspheres had been added. The position of the microsphere peak was initially calibrated using the malaria infected RBCs as the primary standard. Each sample was then checked to insure that the microsphere peak was still at the calibrated position before acquisition. Some slight adjustments were necessary in the gains during the course of the analysis, during which ten t=0 samples and ten t=96 samples were run. One million total cells were counted for each sample. Gates were set on forward scatter (e.g. FIG. 3), side scatter (before the major cell peak), and a red gate (e.g. as shown in FIG. 13). These gates insured that only red blood cells and their associated micronuclei would be acquired. Following acquisition, the number of micronucleated cells at t=0 were subtracted from the number at t=96hr for each mouse. The average for the saline controls were slightly negative, and were recorded as zero in this graph. […] In addition, the high doses were approaching 1500 events more than the zero (control) values. […] For comparison, the 96hr samples were also hand counted and the number of MNs/1000 PCEs were determined.
# [3] = K Series: initial bleeding at t = 0
# [4] = M Series: initial bleeding at -166 hr
SMILES,"MNs in 96 hr blood, MMS(D) [1, 3]","Increase in MNs (D - C) [1, 3]","MNs in 96 hr blood, MMS(D) ([1]; L Series: no initial bleeding)",Increase in MNs (D - C) ([1]; L Series: no initial bleeding),"MNs in 96 hr blood, MMS(D) [1, 4]","Increase in MNs (D - C) [1, 4]","dose response ([2]; cyclophosphamide 50, 100, 150 or 200 μg/g body weight at t=0 and t=48 hrs)","clastogenic action at the lower doses ([2]; cyclophosphamide, lower doses, FIG. 14)","increase in MN events over zero (control) values ([2]; high doses of cyclophosphamide (50-200 μg/g body weight tested) at t=0 and t=48 hrs, one million total cells) [events]"
"COS(C)(=O)=O [MMS, methyl methanesulfonate]",1829 and 1794 and 1812,777,1352 and 1390 and 1331 and 1357 ± 30,314,1776 and 1541 and 1673 and 1663 ± 118,513,,,
O=P1(N(CCCl)CCCl)NCCCO1 (stereo not drawn) [cyclophosphamide],,,,,,,dose response relationship is evident; also recorded: good dose response relationship is obtained,data at the lower doses clearly supports the conclusion that clastogenic action was present,~1500
